Measurements reported in the NIST ThermoML archive (doi:10.1007/s10765-009-0667-2).
Several values for one entry are separate records, joined by “and”; a condition that tells them apart may be missing. Identical values can stand only once. ± gives the expanded uncertainty stated by the source.

Columns and labels:
[1] = 101 kPa, Liquid; for mass density: Vibrating tube method
[2] = xn = mol fraction of the nth substance listed; details: 101 kPa, Liquid, x2 = 0; for mass density: Vibrating tube method

## c1ccccc1 [benzene]
[1]; 308.15 K
  viscosity: 0.5272 ± 0.0098 mPa·s
  mass density: 862.9 ± 0.2 kg/m3
[1]; 313.15 K
  viscosity: 0.4942 ± 0.0093 mPa·s
  mass density: 857.7 ± 0.2 kg/m3

## C1CCCCCCC1 [cyclooctane]
[1]; 308.15 K
  viscosity: 1.803 ± 0.029 mPa·s
  mass density: 823.6 ± 0.2 kg/m3
[1]; 313.15 K
  viscosity: 1.636 ± 0.027 mPa·s
  mass density: 819.7 ± 0.2 kg/m3

## CCc1ccccc1 [ethylbenzene]
[1]; 308.15 K
  viscosity: 0.5652 ± 0.01 mPa·s
  mass density: 853.7 ± 0.2 kg/m3
[1]; 313.15 K
  viscosity: 0.5294 ± 0.0099 mPa·s
  mass density: 849.5 ± 0.2 kg/m3
[1]; 318.15 K
  mass density: 849.5 ± 0.2 kg/m3

## CCCCCCC [heptane]
[1]; 308.15 K
  viscosity: 0.3497 ± 0.0071 mPa·s
  mass density: 671.3 ± 0.3 kg/m3
[1]; 313.15 K
  viscosity: 0.3329 ± 0.0069 mPa·s
  mass density: 667.1 ± 0.3 kg/m3

## Cc1ccccc1 [toluene]
[1]; 308.15 K
  viscosity: 0.494 ± 0.0093 mPa·s
  mass density: 852.8 ± 0.2 kg/m3
[1]; 313.15 K
  viscosity: 0.4676 ± 0.0089 mPa·s and 0.4755 ± 0.009 mPa·s
  mass density: 848.3 ± 0.2 kg/m3
[1]; 318.15 K
  mass density: 848.3 ± 0.2 kg/m3

## Cc1ccccc1 [toluene] + c1ccccc1
[2]; 308.15 K
  mass density: 852.8 ± 0.2 kg/m3
  viscosity: 0.494 ± 0.0093 mPa·s
[2]; 313.15 K
  mass density: 848.3 ± 0.2 kg/m3
  viscosity: 0.4676 ± 0.0089 mPa·s
